Data taken from patent US20170327556A1, “CARTILAGE-BINDING FUSION PROTEINS” (Merrimack Pharmaceuticals, Inc., priority 2013, published 2017).

What was measured:
BXPC-3 cells = assay: Stimulation of AKT phosphorylation in BXPC-3 cells (pAKT ELISA); assay type: cell-based; details: 10 min stimulation, doses in M (Table 4), 6x-Histidine-tagged fusion proteins
Procedure: (§1) Fusion proteins comprising IGF-1 and a cartilage matrix binding domain were prepared as described above. Six fusion proteins were prepared: GF-Fus1 (6x-Histidine-tagged), GF-Fus2(6x-Histidine-tagged), GF-Fus3 (6x-Histidine-tagged), GF-Fus4 (6x-Histidine-tagged), GF-Fus5 (6x-Histidine-tagged), and GF-Fus6 (6x-Histidine-tagged). In order to ensure that the growth factor portion of the fusion protein was active in the fusion proteins, each construct was tested for its ability to stimulate AKT phosphorylation. Wild-type IGF-1 (wtIGF) was included as a control. Bovine chondrocytes were stimulated with a range of doses of each fusion protein, and pAKT levels were measured by ELISA.
For ligand stimulation, chondrocytes were seeded at 200,000 cells/well into 96-well tissue culture plates with 100 μL of chondrocyte culture medium with fetal bovine serum (10% v/v, Life Technologies Cat#16140071). Alternatively, BXPC-3 cells, a pancreatic adenocarcinoma cell line (ATCC® CRL-1687™), were seeded at 30,000 cells/well into 96-well tissue culture plates with 100 μL of BXPC-3 medium (RPMI-1640, e.g., ATCC® 30-2001™), with L-glutamine (2 mM), Penicillin-Streptomycin (1×, Gibco® 15140-122), Fetal Bovine Serum (10% v/v, Life Technologies Cat#16140071)). After 24 hrs, both chondrocytes and BXPC-3 cells were rinsed with 100 μL of sterile PBS (pH=7.4) per well and 100 μl of chondrocyte or BXPC-3 culture medium (without fetal bovine serum) was added to the corresponding cell type. After an additional 24 hrs, cells were stimulated with the doses of fusion proteins set forth in Table 4 by adding 25 μL of fusion protein at a concentration 5 times greater than the concentration listed in Table 4 to the 100 μL of medium already in the wells. After 10 min of stimulation, fusion protein was removed and wells were rinsed in ice cold PBS (pH=7.4). 50 μL/well of cell extraction buffer (Invitrogen cat# FNN0011) was added and incubated with shaking at 4° C. for 30 minutes. Lysates were then frozen at −80° C.
Corning high binding 384 well black ELISA plates (cat#3577) are coated with 30 μL of capture antibody at 4 μg/mL (anti-AKT1 total capture antibody, Upstate, Cat#05-591MG) in PBS (pH=7.4) for 16 hours at room temperature, washed and blocked with […] 2% bovine serum albumin (Sigma Cat# A3294) in PBS (pH=7.4) for 1 hour at room temperature. 20 μL of thawed lysates or recombinant pAKT standards (ten 2-fold serial dilutions of 400 ng recombinant human AKT, active (Upstate, Cat#14-276) in PBS (pH=7.4) containing 50% v/v Cell extraction buffer (Invitrogen Cat#FNN0011), 1% bovine serum albumin (Sigma Cat# A3294), 0.05% Tween20) are applied to the coated plate and incubated for 2 hours at room temperature. After washing 3 times with 100 μL/well of 0.05% Tween-20/PBS (pH=7.4) bound phospho-AKT is detected using Phospho-AKT (Ser473)(587F11)-biotinylated (Cell Signaling, Cat#5102), streptavidin-HRP (R&D Systems Cat# DY998, Part #890803), SuperSignal ELISA PicoChemiluminescent Substrate (Thermo Scientific Cat#37069), using a luminometer to detect light emissions at 425 nm.

[1] = tested on: AKT phosphorylation in bovine chondrocytes; assay: Stimulation of AKT phosphorylation in primary bovine chondrocytes (pAKT ELISA); assay type: cell-based; details: 10 min stimulation, doses in M (Table 4), 6x-Histidine-tagged fusion proteins
Procedure: as §1
Bovine chondrocytes are isolated from the femoral chondyles of 2-4 week old bovine calves. Knee joints are mounted by removing all tissue surrounding the femur, removing the femoral head with a bone saw or hack saw, and clamping in a tissue vice. Joints are aseptically opened, removing the patella, tibia and fibula. Using a scalpel, cartilage is sliced off the femoral chondyles and placed in sterile PBS (pH=7.4) containing penicillin-streptomycin (1×, Gibco 15140-122). PBS is subsequently removed and pronase solution (50 mL per 5 g of tissue), consisting of high glucose DMEM (Life Technologies Cat#11965-092), fetal bovine serum (10% v/v, Life Technologies Cat#16140071), HEPES (100 mM, Gibco 15630-080), non-essential amino acids (1×, Sigma M7145), penicillin-streptomycin (1×, Gibco 15140-122), proline (400 μM, Sigma P5607-256), Protease Type XIV (2 mg/mL, Sigma Cat# P5147), is added for 1 hour with stirring. After rinsing twice with sterile PBS (pH=7.4), collagenase solution (50 mL per 5 g of tissue), consisting of high glucose DMEM (Life Technologies Cat#11965-092), fetal bovine serum (10% v/v, Life Technologies Cat#16140071), HEPES (100 mM, Gibco 15630-080), NEAA(1×, Sigma M7145), Penicillin-Streptomycin (1×, Gibco 15140-122), 0.25 mg/mL Collagenase P (Roche Cat#11 249 002 001), is added for 18 hours with stirring. Cell are strained, washed, and resuspended in chondrocyte culture medium (low glucose DMEM (1× Gibco 11885-084), Penicillin-Streptomycin (1×, Gibco 15140-122), non-essential amino acids (1×, Sigma M7145), and HEPES (100 mM, Gibco 15630-080)) with fetal bovine serum (10% v/v, Life Technologies Cat#16140071).
For ligand stimulation, chondrocytes were seeded at 200,000 cells/well into 96-well tissue culture plates with 100 μL of chondrocyte culture medium with fetal bovine serum (10% v/v, Life Technologies Cat#16140071). […]

Substance	logEC50 Mean (BXPC-3 cells)	logEC50 Mean [1]
GF-Fus6: IGF-1(LR3) fused to CNA344 CB domain	−8.832	
GF-Fus3: C-terminal fusion IGF-1(LR3)-PRELP heparin binding domain	−9.231	−9.175
GF-Fus5: IGF-1(LR3) fused to CNA35 CB domain	−8.969	
wtIGF: Wild-type IGF-1 (R&D systems 291-G1), control [reference compound]	−9.081	−9.071
GF-Fus1: IGF-1 variant polypeptide Long [R^3]-IGF-1, no fused binding domain; used 6x-Histidine-tagged as control [reference compound]	−8.605	−9.227
